The values that follow come from patent publication US7247634B2, “Rifamycin derivatives effective against drug-resistant microbes” (Cumbre Pharmaceuticals Inc., priority 2004, dated 2007).

Common to all, as to assay type: cell-based
In assay [1] the test system is Escherichia coli ATCC25922. Briefly: MIC, microbroth dilution (NCCLS). As to conditions: rifS strain, Cation-Adjusted Mueller-Hinton Broth, 37° C., read-out: Antimicrobial activity (MIC). (Broth dilution looks for growth in wells or tubes with falling amounts of substance.)
For assay [2], the system named is Mycobacterium smegmatis ATCC700084. Briefly: MIC, microbroth dilution (NCCLS). As to conditions: Mycolicibacterium smegmatis, rifS strain, Middlebrook Broth plus ADC Enrichment, 37° C., read-out: Antimicrobial activity (MIC).
The test system of assay [3] is Streptococcus pneumoniae ATCC6303. Briefly: MIC, microbroth dilution (NCCLS). The following applies: rifS strain, THY Broth with 1 mg/mL catalase, 5% CO2, 37° C., read-out: Antimicrobial activity (MIC).
In assay [4] the test system is Staphylococcus aureus ATCC29213. The experiment in a line: MIC, microbroth dilution (NCCLS). As to conditions: rifS strain, Cation-Adjusted Mueller-Hinton Broth, 37° C., read-out: Antimicrobial activity (MIC).
In assay [5] the test system is Enterococcus faecalis ATCC29212. The experiment in a line: MIC, microbroth dilution (NCCLS). The following applies: rifS strain, BHI Broth, 37° C., read-out: Antimicrobial activity (MIC).
The test system of assay [6] is Staphylococcus aureus ATCC29213 rpoB^H418Y. The experiment in a line: microbe, parasite or virus in culture. The following applies: ATCC29213, read-out: Antimicrobial activity (MIC). In outline:
(§1)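 Tested organisms were S. aureus ATCC 29213 rpoB mutants (D417Y, H418Y; rifampin-resistant) and double gyrase/topoisomerase IV mutant EN1252a (quinolone-resistant). Growth in cation-adjusted Mueller-Hinton broth at 37 °C; MIC by microbroth dilution per NCCLS guidelines.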

Assay [7] deals with Staphylococcus aureus EN1252a gyrA^S84L grlA^S80F. Briefly: microbe, parasite or virus in culture. As to conditions: read-out: Antimicrobial activity (MIC). Summed up:
as §1

The subject of assay [8] is Staphylococcus aureus ATCC29213 rpoB^D417Y. Briefly: microbe, parasite or virus in culture. As to conditions: ATCC29213, read-out: Antimicrobial activity (MIC). In outline:
as §1

In assay [9] the test system is Haemophilus influenzae ATCC10211. The experiment in a line: MIC, microbroth dilution (NCCLS). The following applies: rifS strain, BHI Broth with NAD and hematin, 37° C., read-out: Antimicrobial activity (MIC).
In assay [10] the test system is Staphylococcus epidermidis ATCC12228. Briefly: MIC, microbroth dilution (NCCLS). As to conditions: rifS strain, Cation-Adjusted Mueller-Hinton Broth, 37° C., read-out: Antimicrobial activity (MIC).
The subject of assay [11] is Streptococcus pyogenes ATCC19615. The experiment in a line: MIC, microbroth dilution (NCCLS). As to conditions: rifS strain, THY Broth, 37° C., read-out: Antimicrobial activity (MIC).

≈ marks a conversion by molar mass, not a printed value.

Take `COc1c(N2CC3CCCN(C4CCN(C5=C6NC(=O)/C(C)=C\C=C\[C@H](C)[C@H](O)[C@@H](C)[C@@H](O)[C@@H](C)[C@H](OC(C)=O)[C@H](C)[C@@H](OC)/C=C/O[C@@]7(C)Oc8c(C)c(O)c(c(c8C7=O)C5=O)C6=O)CC4)C3C2)c(F)cc2c(=O)c(C(=O)O)cn(C3CC3)c12` (stereo partly shown) [Example 35, 3-{4-[6-(3-Carboxy-1-cyclopropyl-6-fluoro-8-methoxy-4-oxo-1,4-dihydroquinolin-7-yl)-octahydro-pyrrolo[3,4-b]-pyrridin-1-yl]-piperidin-1-yl}rifamycin S]: the MIC in assay [1] fell in the range of 0.125 to 8 µg/mL (≈ 0.106 to 6.79 µM); in assay [2], 0.5 to 64 µg/mL; in assay [3], 0.008 to 0.125 µg/mL (≈ 0.00679 to 0.106 µM); in assay [4], 0.004 to 0.5 µg/mL (≈ 0.00339 to 0.424 µM); in assay [5] it was 2 to 32 µg/mL (≈ 1.7 to 27.2 µM); in assay [6] it was 0.06 to 16 µg/mL (≈ 0.0509 to 13.6 µM). For the same molecule, the MIC in assay [7] fell in the range of 0.004 to 0.5 µg/mL (≈ 0.00339 to 0.424 µM); in assay [8], 0.06 to 32 µg/mL (≈ 0.0509 to 27.2 µM); in assay [9], 0.125 to 2 µg/mL (≈ 0.106 to 1.7 µM); in assay [10], 0.008 to 0.063 µg/mL (≈ 0.00679 to 0.0535 µM); in assay [11], 0.008 to 0.063 µg/mL (≈ 0.00679 to 0.0535 µM).
Take `CO[C@H]1/C=C/O[C@@]2(C)Oc3c(C)c(O)c4c(c3C2=O)C(=O)C(N2CCC(N3CCN(c5c(F)cc6c(=O)c(C(=O)O)cn(C7CC7)c6c5Cl)CC3)CC2)=C(NC(=O)/C(C)=C\C=C\[C@H](C)[C@H](O)[C@@H](C)[C@@H](O)[C@@H](C)[C@H](OC(C)=O)[C@@H]1C)C4=O` [Example 38, 3-{4-[1-(3-Carboxy-8-chloro-1-cyclopropyl-6-fluoro-4-oxo-1,4-dihydroquinolin-7-yl)-piperazin-4-yl]-piperidin-1-yl}rifamycin S]: the MIC in [1] was 0.125 to 8 µg/mL (≈ 0.109 to 7 µM); in assay [2], 0.5 to 64 µg/mL; in [3] it was 0.008 to 0.125 µg/mL (≈ 0.007 to 0.109 µM); in [4], 0.004 to 0.5 µg/mL (≈ 0.0035 to 0.438 µM); in assay [5], 2 to 32 µg/mL (≈ 1.75 to 28 µM); in assay [6] it was 0.06 to 16 µg/mL (≈ 0.0525 to 14 µM). Further, the MIC lay within 0.004 to 0.5 µg/mL (≈ 0.0035 to 0.438 µM) in [7]; 0.06 to 32 µg/mL (≈ 0.0525 to 28 µM) in assay [8]; 0.125 to 2 µg/mL (≈ 0.109 to 1.75 µM) in assay [9]; 0.008 to 0.063 µg/mL (≈ 0.007 to 0.0551 µM) in assay [10]; 0.008 to 0.063 µg/mL (≈ 0.007 to 0.0551 µM) in assay [11].
On to `COc1c(N2CCC(C(C)NC3CCN(C4=C5NC(=O)/C(C)=C\C=C\[C@H](C)[C@H](O)[C@@H](C)[C@@H](O)[C@@H](C)[C@H](OC(C)=O)[C@H](C)[C@@H](OC)/C=C/O[C@@]6(C)Oc7c(C)c(O)c(c(c7C6=O)C4=O)C5=O)CC3)C2)c(F)cc2c(=O)c(C(=O)O)cn(C3CC3)c12` (stereo partly shown) [Example 39, 3-{4-[1-(3-Carboxy-1-cyclopropyl-6-fluoro-8-methoxy-4-oxo-1,4-dihydroquinolin-7-yl)-pyrrolidin-3-ylethylamino]-piperidin-1-yl}rifamycin S], for which the MIC is 0.125 to 8 µg/mL (≈ 0.107 to 6.86 µM) in assay [1]; 0.5 to 64 µg/mL in assay [2]; 0.008 to 0.125 µg/mL (≈ 0.00686 to 0.107 µM) in assay [3]; 0.004 to 0.5 µg/mL (≈ 0.00343 to 0.429 µM) in [4]; 2 to 32 µg/mL (≈ 1.71 to 27.4 µM) in assay [5]; 0.06 to 16 µg/mL (≈ 0.0514 to 13.7 µM) in assay [6]. In addition, the MIC in assay [7] fell in the range of 0.004 to 0.5 µg/mL (≈ 0.00343 to 0.429 µM); in [8] it was 0.06 to 32 µg/mL (≈ 0.0514 to 27.4 µM); in assay [9], 0.125 to 2 µg/mL (≈ 0.107 to 1.71 µM); in [10], 0.008 to 0.063 µg/mL (≈ 0.00686 to 0.054 µM); in [11] it was 0.008 to 0.063 µg/mL (≈ 0.00686 to 0.054 µM).
For `COc1c(N2CCN(C(=O)C3CN(C4=C5NC(=O)/C(C)=C\C=C\[C@H](C)[C@H](O)[C@@H](C)[C@@H](O)[C@@H](C)[C@H](OC(C)=O)[C@H](C)[C@@H](OC)/C=C/O[C@@]6(C)Oc7c(C)c(O)c(c(c7C6=O)C4=O)C5=O)C3)CC2)c(F)cc2c(=O)c(C(=O)O)cn(C3CC3)c12` [Example 45, 3-{3-[4-(3-Carboxy-1-cyclopropyl-6-fluoro-8-methoxy-4-oxo-1,4-dihydroquinolin-7-yl)-piperazin-1-yl-carbonyl]-azetidin-1-yl}rifamycin S], the MIC was 0.125 to 8 µg/mL (≈ 0.11 to 7.03 µM) in assay [1]; 0.5 to 64 µg/mL in assay [2]; 0.008 to 0.125 µg/mL (≈ 0.00703 to 0.11 µM) in assay [3]; 0.004 to 0.5 µg/mL (≈ 0.00351 to 0.439 µM) in [4]; 2 to 32 µg/mL (≈ 1.76 to 28.1 µM) in assay [5]; 0.06 to 16 µg/mL (≈ 0.0527 to 14.1 µM) in assay [6]. Further, the MIC in assay [7] lay in the range of 0.004 to 0.5 µg/mL (≈ 0.00351 to 0.439 µM); in assay [8], 0.06 to 32 µg/mL (≈ 0.0527 to 28.1 µM); in [9] it was 0.125 to 2 µg/mL (≈ 0.11 to 1.76 µM); in assay [10], 0.008 to 0.063 µg/mL (≈ 0.00703 to 0.0554 µM); in assay [11], 0.008 to 0.063 µg/mL (≈ 0.00703 to 0.0554 µM).
For `COc1c(N2CC(NC(=O)C3CN(C4=C5NC(=O)/C(C)=C\C=C\[C@H](C)[C@H](O)[C@@H](C)[C@@H](O)[C@@H](C)[C@H](OC(C)=O)[C@H](C)[C@@H](OC)/C=C/O[C@@]6(C)Oc7c(C)c(O)c(c(c7C6=O)C4=O)C5=O)C3)C2)c(F)cc2c(=O)c(C(=O)O)cn(C3CC3)c12` [Example 47, 3-{3-[1-(3-Carboxy-1-cyclopropyl-6-fluoro-8-methoxy-4-oxo-1,4-dihydroquinolin-7-yl)-azetidin-3-ylcarbamoyl]-azetidin-1-yl}rifamycin S], the MIC lay in the range of 0.125 to 8 µg/mL (≈ 0.111 to 7.12 µM) in assay [1]; 0.5 to 64 µg/mL in assay [2]; 0.008 to 0.125 µg/mL (≈ 0.00712 to 0.111 µM) in assay [3]; 0.004 to 0.5 µg/mL (≈ 0.00356 to 0.445 µM) in assay [4]; 2 to 32 µg/mL (≈ 1.78 to 28.5 µM) in assay [5]; 0.06 to 16 µg/mL (≈ 0.0534 to 14.2 µM) in assay [6]. The MIC in assay [7] lay in the range of 0.004 to 0.5 µg/mL (≈ 0.00356 to 0.445 µM); in assay [8] it was 0.06 to 32 µg/mL (≈ 0.0534 to 28.5 µM); in assay [9] it was 0.125 to 2 µg/mL (≈ 0.111 to 1.78 µM); in assay [10] it was 0.008 to 0.063 µg/mL (≈ 0.00712 to 0.056 µM); in assay [11], 0.008 to 0.063 µg/mL (≈ 0.00712 to 0.056 µM).
